The record followed here is patent publication US7293985B2 (priority 1998, dated 2007).

Structures can show the parent of a compound that is named as a salt. Where two headings read alike, the source gives them in different places.

For series [1], the system named is Vesicular stomatitis virus (VSV). It is filed as cell-based.
Series [2] can be described thus: physchem. To be noted: pH 7.
Series [3] is described as follows: physchem. To be noted: buffer.
In series [4] the test system is murine red blood cells (RBCs). To be noted: mouse, in vivo.
The subject of series [5] is Yersinia enterocolitica. The class given is cell-based.
Series [6] concerns Staphylococcus epidermidis. The class given is cell-based.
Series [7] concerns red blood cell membranes. To be noted: 3 mM Glutathione added to PRBCs. The protocol: The concentration of GSH was calculated based on the absorbance at 412 nm using a Beckman DU20 (Beckman, Irvine, Calif.) single wavelength spectrometer.
Series [8] has as its system cell-free HIV-IIIB. It is filed as cell-based. Conditions: for Log Kill / Log Titer: no PIC-1, GSH 30 mM.

As for `O=S(=O)(O)CCS` [MENSA, mercaptoethanesulfonic acid sodium salt], in series [1], the “Log Kill” value was 2.3 log.
For `O=C(CCNc1c2ccccc2nc2ccccc12)OCCN(CCCl)CCCl` [PIC-1, β-alanine, N-(acridin-9-yl), 2-[bis(2-chloroethyl)amino]ethyl ester], the results for the half-life in series [2], in series [3] (pH 2.2) and in series [3] (pH 6) were 32 min, 450 min and 25 min, respectively.
In the case of `O=C(CCNc1c2ccccc2nc2ccccc12)NCCN(CCCl)CCCl` [PIC-2, P-alanine, N-(acridin-9-yl), 2-[bis(2-chloroethyl)amino]ethyl amide], in series [4], the “RBC survival compared to control” value is “substantially the same as control” and the “recovery or lifespan of treated RBCs compared to label-only controls” value was “No difference”.
On to `N[C@@H](CS)C(=O)O` [cysteine], for which, in series [5], the “Log Kill” value was found to be 0 log and the “Log Titer” value stood at 7.4 log.
On to `N[C@@H](CCC(=O)N[C@@H](CS)C(=O)NCC(=O)O)C(=O)O` [glutathione], for which the “Log Kill” value in series [6] is 0 log; in series [5], 0 log; in series [8] (12 hour incubation (sample 4)), 0.6 log; in series [8] (no incubation (sample 2)), 0.3 log. Further, the “Log Titer” value in series [6] was found to be 7.5 log; in series [5] it was 7.4 log; in series [8] (12 hour incubation (sample 4)), 6.4 log; in series [8] (no incubation (sample 2)), 6.9 log. The “recovery or lifespan of treated RBCs compared to label-only controls” value in series [4] is recorded as “No difference”. This molecule also registered a reduction of inactivation in series [5] of 1 to 2 log kill. For the same molecule, the “Absorption 412 nm Supernatant” value in series [7] (Time 0 min) amounted to 0.33; in series [7] (Time 60 min), 0.318; in series [7] (Time 120 min), 0.312; in series [7] (Time 270 min) it was 0.306; in series [7] (Time 1080 min) it was 0.297; in series [7] (Time 1440 min), 0.296. Besides, the “Absorption 412 nm Total” value in series [7] (Time 0 min) was 0.230; in series [7] (Time 60 min), 0.227; in series [7] (Time 120 min), 0.231; in series [7] (Time 270 min), 0.213; in series [7] (Time 1080 min), 0.227; in series [7] (Time 1440 min) it was 0.220. Besides, the “GSH Concentration Supernatant” value in series [7] (Time 0 min) is recorded as 3.071 mM; in series [7] (Time 60 min), 2.96 mM; in series [7] (Time 120 min), 2.90 mM; in series [7] (Time 270 min) it was 2.85 mM; in series [7] (Time 1080 min), 2.77 mM; in series [7] (Time 1440 min) it was 2.76 mM. The “GSH Concentration Total” value is recorded as 5.286 mM in series [7] (Time 0 min); 5.217 mM in series [7] (Time 60 min); 5.308 mM in series [7] (Time 120 min); 4.898 mM in series [7] (Time 270 min); 5.217 mM in series [7] (Time 1080 min); 5.058 mM in series [7] (Time 1440 min). Besides, in series [8] (30 mM glutathione alone (samples 2 and 4 compared to samples 1 and 3)), the “reduction of HIV infectivity” value is recorded as 0.3 to 0.6 logs.

In general, half-life refers to how long it takes for the measured level to halve. Higher therefore signals slow decline.
